Data set [1] in a line: Single dose IV and PO PK study in C57BL/6 mice. In kind it is in vivo. Conditions: mouse, plasma; male C57BL/6 mice, single oral dose 10 mg/kg. As for the experimental part: C57BL/6 male mice or Han Wistar rats were used, n=3 for each administration route and compound. Single dose of each compound was administered orally (PO, 10 mg/Kg) or by intravenous administration (IV, 1 mg/Kg). Following intravenous and oral administration, blood samples (ca 0.2 mL) were collected and compound amount was measured by HLPC. For IV group, blood samples were collected at 0.083, 0.25, 0.5, 1, 2, 4, 6, 8, and 24 hours post-dose. For PO group, blood samples were collected at 0.25, 0.5, 1, 2, 4, 6, 8, and 24 hours post-dose.

A further data set has as its target FABP5 (Homo sapiens (Human), UniProt Q01469). Kind of data set: Fluorescence (ANS) competition binding assay, FABP5. Conditions: ANS displacement. As for the experimental part:
(§1) This example illustrates a two-step fluorescence binding assay study used to determine the binding affinity of the various inhibitor compounds disclosed herein with the various FABPs: FABP3, FABP4, FABP5 and FABP7. Further secondary screening studies were carried out for compounds with high binding affinities toward the FABPs and based on their ability to activate the nuclear receptors PPARα, PPARγ, or PPARδ.
(§2) Binding assays for FABP3, FABP4, FABP5 and FABP7 were carried out by fluorescence titrations. His-tagged FABPs were bacterially expressed in E. coli, purified using Ni Sepharose beads, and the equilibrium dissociation constants (Kd) that characterize their interactions with different inhibitor compounds were measured by fluorescence competition assays. The method entails two steps as described in e.g., Lin, Q. et al., “Ligand selectivity of the peroxisome proliferator-activated receptor alpha,” Biochemistry 38, 185-190, doi:10.1021/bi9816094 [pii](1999). In the first step, Kd for the association of the protein with the fluorescent fatty acid probe ANS was measured. Protein (2 μM) was titrated with ANS from a concentrated solution in DMSO. Ligand binding was monitored by following the increase in the fluorescence of the ligand upon binding to the protein, and Kd for the association of ANS with the each FABP was computed from titration curves as described in e.g., Norris, A. W. & Li, E., “Fluorometric titration of the CRABPs,” Methods Mol Biol 89, 123-139 (1998)). In the second step, Kds for binding of non-fluorescent ligands were measured by monitoring their ability to displace ANS in the binding pocket of the protein. Each FABP was precomplexed with ANS at 1:1 molar ratio and titrated with the different compounds whose binding was reflected by a decrease in probe fluorescence. Kds were extracted from the EC50 of the competition curve and the measured Kd for ANS.

The next data set addresses FABP4 (Homo sapiens (Human), UniProt P15090). Kind of data set: Fluorescence (ANS) competition binding assay, FABP4. Conditions: ANS displacement. The protocol:
as §1, §2

The target in a further data set is FABP3 (Homo sapiens (Human), UniProt P05413). Kind of data set: Fluorescence (ANS) competition binding assay, FABP3. Conditions: ANS displacement. As for the experimental part: as §1, §2
A further data set concerns the target FABP7 (Homo sapiens (Human), UniProt O15540). Kind of data set: Fluorescence (ANS) competition binding assay, FABP7. Conditions: ANS displacement. The protocol: as §1, §2
The next data set has as its target PPARα (Homo sapiens (Human), UniProt Q07869). Put plainly: Transcriptional activation assay in COS7 cells, PPARα. Conditions: known agonist, 5 μM. The format is cell-based. The protocol: COS-7 were cultured in 6-well plates and co-transfected with either a luciferase reporter driven by 3 copies of a PPRE and expression vector for either PPARδ, PPARα or PPARγ together with a vector harboring cDNA for β-galactosidase, serving as a transfection control. To test whether FABP4 or FABP5 mediate activation of their cognate receptors PPARγ and PPARδ, respectively, cells were also co-transfected with a plasmid harboring sequence of either FABP4 or FABP5. 18 h post-transfection, cells were placed in a serum-free medium and treated with agonist/compound. 18 h. later, cells were lysed, luciferase activity was assayed (Promega, WI, USA) and corrected for transfection efficiency by the activity of β-galactosidase.
Transcriptional activation assays were carried out utilizing COS7 cells as described above.

This note sets out measurements from US20250325529A1, “INHIBITORS OF FATTY ACID BINDING PROTEINS (FABPs), METHODS OF USE AND METHODS OF MAKING” (Celloram, inc., priority 2024, published 2025).

pKd: −log10 of the molar value.

Sequence of FABP4 (P15090 whole entry, species assumed): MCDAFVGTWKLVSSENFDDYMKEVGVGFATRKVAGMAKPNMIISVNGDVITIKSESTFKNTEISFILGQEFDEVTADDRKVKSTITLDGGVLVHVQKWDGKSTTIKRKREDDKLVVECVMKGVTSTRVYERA
Sequence of FABP5 (Q01469 whole entry, species assumed): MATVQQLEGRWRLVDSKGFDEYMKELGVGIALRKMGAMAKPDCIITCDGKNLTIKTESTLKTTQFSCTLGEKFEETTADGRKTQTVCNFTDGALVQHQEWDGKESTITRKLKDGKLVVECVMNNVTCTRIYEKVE
Sequence of FABP3 (P05413 whole entry, species assumed): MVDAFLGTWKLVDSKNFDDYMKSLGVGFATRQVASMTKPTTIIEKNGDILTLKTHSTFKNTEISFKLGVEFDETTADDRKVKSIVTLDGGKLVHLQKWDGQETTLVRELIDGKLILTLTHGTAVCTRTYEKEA
Sequence of FABP7 (O15540 whole entry, species assumed): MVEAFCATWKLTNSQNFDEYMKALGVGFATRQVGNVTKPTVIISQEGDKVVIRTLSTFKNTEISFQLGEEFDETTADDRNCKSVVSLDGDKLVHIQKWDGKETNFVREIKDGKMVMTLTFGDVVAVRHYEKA
Sequence of PPARα (Q07869 whole entry, species assumed): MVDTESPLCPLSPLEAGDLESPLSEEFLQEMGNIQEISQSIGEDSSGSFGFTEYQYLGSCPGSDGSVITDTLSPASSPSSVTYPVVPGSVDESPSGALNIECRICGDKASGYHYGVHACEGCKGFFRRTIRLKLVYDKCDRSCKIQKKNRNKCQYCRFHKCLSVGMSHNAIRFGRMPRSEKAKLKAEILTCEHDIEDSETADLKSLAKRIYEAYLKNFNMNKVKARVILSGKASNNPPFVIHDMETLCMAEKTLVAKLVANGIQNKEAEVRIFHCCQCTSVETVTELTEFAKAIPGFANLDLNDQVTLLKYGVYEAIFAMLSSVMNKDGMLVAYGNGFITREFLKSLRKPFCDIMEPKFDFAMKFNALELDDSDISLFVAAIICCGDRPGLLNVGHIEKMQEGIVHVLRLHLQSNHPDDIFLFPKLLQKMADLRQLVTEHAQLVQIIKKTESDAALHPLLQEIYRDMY

By bioavailability is commonly meant the share of a dose that reaches the circulation, judged against a reference dose that is usually intravenous. Read a low bioavailability as poor availability. For the compound `CC(C)Oc1cc(NC(=O)CSCC(=O)O)c(Cl)cc1Cl` [Compound B4, 2-((2-((2,4-dichloro-5-isopropoxyphenyl)amino)-2-oxoethyl)thio)acetic acid, reference compound], the bioavailability in data set [1] amounted to 47%.
The pKd is the Kd on a negative log10 scale, so that one unit is a factor of ten. Lower therefore signals a high Kd. As to `CC(C)Oc1nc(NC(=O)CSC(C)(C)C(=O)O)c(Cl)cc1Cl` [PD153, 2-((2-((3,5-dichloro-6-isopropoxypyridin-2-yl)amino)-2-oxoethyl)thio)-2-methylpropanoic acid], the pKd was 7.10 on FABP5, 7.02 at FABP4, 7.01 at FABP3 and 6.46 on FABP7.
The matching figures for `CC(C)Oc1nc(NC(=O)COCC(=O)O)c(Cl)cc1Cl` [PD155, 2-(2-((3,5-dichloro-6-isopropoxypyridin-2-yl)amino)-2-oxoethoxy)acetic acid]: 7.23, 7.10, 6.93 and 6.97.
On to `Cc1cccc(Nc2cc(Cl)nc(SCC(=O)O)n2)c1C` [Wy-14643, reference compound], for which the “Activation of transcription by PPARα” value at PPARα is reported as “induced activation of their respective receptors”.
